“Also recorded” adds a separate entry of the source. Bridge positions count the residues as written; N and C are the ends. cypate = near infrared fluorescent dye cypate
How the values were obtained:
[1] = target: T1, NPR-C (Homo sapiens, UniProt P17342); assay: Cellular internalization of LS668 in stably transfected 293T-NPR-C cells (fluorescence microscopy); assay type: cell-based; set-up: cellular internalization in presence of excess C-ANF peptide: dose or concentration left out as unconfirmed
T1 construct: expressed in transfected cells; host or cells: 293T
T1 sequence (P17342 27-541): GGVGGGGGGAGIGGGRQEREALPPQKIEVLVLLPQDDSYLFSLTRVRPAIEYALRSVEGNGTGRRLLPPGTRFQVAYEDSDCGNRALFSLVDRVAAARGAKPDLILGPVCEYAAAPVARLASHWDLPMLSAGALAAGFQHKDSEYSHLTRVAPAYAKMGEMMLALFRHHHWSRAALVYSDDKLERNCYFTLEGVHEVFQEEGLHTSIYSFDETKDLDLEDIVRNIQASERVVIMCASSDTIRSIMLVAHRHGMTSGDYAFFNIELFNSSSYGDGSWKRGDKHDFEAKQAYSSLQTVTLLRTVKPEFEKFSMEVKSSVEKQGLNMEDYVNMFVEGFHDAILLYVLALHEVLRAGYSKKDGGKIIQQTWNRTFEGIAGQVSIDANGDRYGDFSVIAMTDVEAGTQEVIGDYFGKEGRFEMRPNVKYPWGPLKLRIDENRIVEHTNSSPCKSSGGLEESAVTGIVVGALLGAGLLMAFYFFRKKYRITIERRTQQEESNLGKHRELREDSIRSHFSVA

[2] = target: T2, NPR-A (Homo sapiens, UniProt P16066); assay: Cellular internalization of LS668 in control 293T-NPR-A cells (fluorescence microscopy); assay type: cell-based
T2 construct: expressed in transfected cells; host or cells: 293T
T2 sequence (P16066 33-1061): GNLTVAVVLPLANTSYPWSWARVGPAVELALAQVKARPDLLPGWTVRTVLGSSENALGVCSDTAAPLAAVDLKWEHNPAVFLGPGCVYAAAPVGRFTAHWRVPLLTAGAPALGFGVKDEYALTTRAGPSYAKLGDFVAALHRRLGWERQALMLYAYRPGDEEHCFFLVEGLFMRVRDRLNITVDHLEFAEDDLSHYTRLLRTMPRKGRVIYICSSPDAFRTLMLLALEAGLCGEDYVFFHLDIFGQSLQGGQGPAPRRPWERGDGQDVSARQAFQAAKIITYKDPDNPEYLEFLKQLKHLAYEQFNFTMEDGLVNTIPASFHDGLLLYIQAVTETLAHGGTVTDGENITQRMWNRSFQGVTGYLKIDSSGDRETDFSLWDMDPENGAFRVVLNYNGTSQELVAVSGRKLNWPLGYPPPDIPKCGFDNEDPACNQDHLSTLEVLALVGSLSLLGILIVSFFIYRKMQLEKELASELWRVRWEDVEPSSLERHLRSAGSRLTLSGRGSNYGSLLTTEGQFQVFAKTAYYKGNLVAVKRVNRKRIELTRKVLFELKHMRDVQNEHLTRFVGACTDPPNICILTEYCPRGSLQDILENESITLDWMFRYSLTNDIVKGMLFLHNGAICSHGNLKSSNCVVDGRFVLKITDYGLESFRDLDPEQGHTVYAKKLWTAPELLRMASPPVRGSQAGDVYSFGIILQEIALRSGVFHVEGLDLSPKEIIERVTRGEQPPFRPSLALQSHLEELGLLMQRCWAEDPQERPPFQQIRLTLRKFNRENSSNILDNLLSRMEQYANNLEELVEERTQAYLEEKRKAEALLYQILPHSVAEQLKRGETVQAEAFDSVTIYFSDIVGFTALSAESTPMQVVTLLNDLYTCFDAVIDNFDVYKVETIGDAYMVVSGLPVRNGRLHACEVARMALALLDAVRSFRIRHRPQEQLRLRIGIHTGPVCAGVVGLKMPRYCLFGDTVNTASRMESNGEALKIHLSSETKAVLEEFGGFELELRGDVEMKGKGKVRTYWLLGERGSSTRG

[3] = test system: C-type natriuretic peptide receptors (NPR-C) on focal atherosclerotic lesions; assay: In vivo fluorescence molecular tomography (FMT) of focal atherosclerotic lesions in femoral arteries; set-up: species or system New Zealand white rabbits; details: for integrated fluorescence signal, difference between control and injured arteries, P (unpaired t test, two tailed): n=3
Source text: Carotid artery atherosclerosis is classified as an important cause of stroke. Unstable plaque is characterized by an eccentric neo-intimal lesion with a lipid core covered by a thinning cap of smooth muscle cells, active angiogenesis, increased matrix metalloproteinase activity, and translocation of monocyte/macrophages that transform into foam cells. Timely noninvasive imaging that could signal prerupture plaque progression will reduce the morbidity and mortality by allowing early intervention.^1 Although positron emission tomography (PET) and magnetic resonance imaging (MRI) are routinely used for metabolic and morphologic imaging, these modalities are not suited for frequent monitoring or even screening of at-risk patients because of ionizing radiation (PET) and expense (PET, MRI). Transcutaneous Doppler and intravascular ultrasound are insensitive to the subtle molecular changes of critical importance. Fluorescence molecular tomography (FMT) is an emerging optical imaging technology that allows tomographic and quantitative visualization of molecular events in vivo.^2 In this study, a custom built, fiber-based, portable, video-rate FMT system was used for proof-of-principle studies to detect C-type natriuretic peptide receptors (NPR-C) on focal atherosclerotic lesions in the superficial rabbit femoral arteries. The FMT system consisted of a flexible imaging pad (3 cm×3 cm), containing 12 sources 785 nm 20 kHz, and 830 nm 17-kHz laser diodes as excitation source and reference, respectively.^3 The detectors allowed for dynamic concurrent acquisition of frequency encoded fluorescence emission (830 nm; 20 kHz) and transmission reference (830 nm; 17 kHz) signals for the fast generation of ratio-metric data for tomographic reconstruction of the tissue volume. The system could report varying concentrations (1 nM to 1 M) of indocyanine green at various depths up to 13.5 mm with a depth-dependent spatial resolution on the order of 12 mm.^3
A model of focal atherosclerotic-like plaques in the femoral arteries (located 1 to 1.5 cm from skin surface) of New Zealand white rabbits was used. All animal studies performed were approved by the Washington University Animal Studies Committee. Endothelial denudation of surgically exposed right femoral artery was induced by air desiccation of the luminal surface as described previously.^4 The uninjured left femoral artery served as the internal control. The animals were maintained on a cholesterol-enriched diet (>200 mg dL in blood), and over time the air desiccation led to a focal lesion. In this animal model, anatomical coregistration was not used because the location of the lesion was apparent due to the surgical markings and identification by the surgeon at each imaging session. In a clinical setting, coregistration of the FMT probe with the ultra sound (US) probe can be utilized. […] Natriuretic peptides (NPs) play an important role in regulating cardiovascular homeostasis. NPR-C (clearance receptor) removes NPs from circulation by receptor mediated endocytosis.^6 A bioconjugate LS668 (Cypate-RSSc[[…]]) (SEQ ID NO:3), consisting of a near infrared (NIR) fluorescent dye cypate conjugated to a targeting peptide, C-type atrial natriuretic peptide, specific for NPR-C was evaluated (FIG. 1A). […] Both injured and control femoral arteries of three animals were imaged at day 3 and weeks 1, 2, 4, 6, and 8 following the surgery. […]

[4] = set-up: species or system New Zealand white rabbits; details: rabbit, in vivo
Source text: A model of focal atherosclerotic-like plaques in the femoral arteries (located 1 to 1.5 cm from skin surface) of New Zealand white rabbits was used. All animal studies performed were approved by the Washington University Animal Studies Committee. Endothelial denudation of surgically exposed right femoral artery was induced by air desiccation of the luminal surface as described previously.^4 The uninjured left femoral artery served as the internal control. The animals were maintained on a cholesterol-enriched diet (>200 mg dL in blood), and over time the air desiccation led to a focal lesion. In this animal model, anatomical coregistration was not used because the location of the lesion was apparent due to the surgical markings and identification by the surgeon at each imaging session. […] NPR-C (clearance receptor) removes NPs from circulation by receptor mediated endocytosis.^6 A bioconjugate LS668 (Cypate-RSSc[[…]]) (SEQ ID NO:3), consisting of a near infrared (NIR) fluorescent dye cypate conjugated to a targeting peptide, C-type atrial natriuretic peptide, specific for NPR-C was evaluated (FIG. 1A). […] Integrated fluorescence signal (directly related to the quantity of LS668 in tissue) was calculated from each tissue volume (thresholded at above 20% of respective maximum signal) (FIG. 2H). […]

[5] = Ex vivo tissue biodistribution, injured vs control femoral artery; assay type: in vivo, New Zealand white rabbits; details: 24-h post-injection at week 8, n=2
Source text: FIG. 2A, FIG. 2B, FIG. 2C, FIG. 2D, FIG. 2E, FIG. 2F, FIG. 2G, FIG. 2H and FIG. 2I depict images showing coronal (depth=7 mm), sagittal and transverse sections of reconstructed fluorescence molecular tomography (FMT) signal from injured artery (FIG. 2A, FIG. 2B, FIG. 2C) and corresponding control artery (FIG. 2D, FIG. 2E, FIG. 2F) from a representative animal (rabbit 1). White lines indicate the position of the respective sagittal and transverse sections. […] FIG. 2H depicts a graph showing time dependent changes in integrated fluorescence signal (mean SD, n=3) for injured and control arteries (*P=0.0283; **P=0.0282). FIG. 2I depicts a graph showing the mean (n=2) fluorescence intensity obtained from the ex vivo injured artery containing the lesion and the control artery.
A model of focal atherosclerotic-like plaques in the femoral arteries (located 1 to 1.5 cm from skin surface) of New Zealand white rabbits was used. All animal studies performed were approved by the Washington University Animal Studies Committee. […] NPR-C (clearance receptor) removes NPs from circulation by receptor mediated endocytosis.^6 A bioconjugate LS668 (Cypate-RSSc[[…]]) (SEQ ID NO:3), consisting of a near infrared (NIR) fluorescent dye cypate conjugated to a targeting peptide, C-type atrial natriuretic peptide, specific for NPR-C was evaluated (FIG. 1A). […]

[6] = test system: NPR-C expressing macrophages; assay: Ex vivo staining of paraffin fixed artery sections with LS668, fluorescence microscopy; set-up: species or system rabbit; fluorescence signal of control artery section after ex vivo staining: dose or concentration left out as unconfirmed; details: 30 min, 37° C.
Experimental: FIG. 3A, FIG. 3B and FIG. 3C depict images showing ex vivo studies on the paraffin fixed sections of injured (top row) and control artery (bottom row) sections obtained at 8 weeks postsurgery. FIG. 3A depicts bright field images showing IEL, internal elastic lamina; A, adventitia; M, media; 1° NEO, primary neointima. Scale: 500 m. FIG. 3B depicts corresponding fluorescence images (excitation/emission: 710 75 nm 810 90 nm) after ex vivo staining with LS668. Scale: 500 m. FIG. 3C depicts immunohistochemistry on tissue sections with clone RAM11 antibody (1:100 dilution; blue) for macrophages and counterstained with nuclear fast red. Scale: 250 m. Ex vivo histological validation studies were performed on the arteries at week 8 following the final imaging session. Prior to collecting the arterial segments, the vascular system was flushed with saline and then perfusion fixed with 4% paraformaldehyde and paraffin embedded. Tissue sections were deparaffinized for further studies. […] Histology sections were also stained for macrophages with mouse monoclonal antibody to rabbit macrophages (clone RAM11). Positive signal was visualized using alkaline phosphatase-conjugated secondary antibody and blue substrate, and nuclear fast red counterstain. […] Serial sections were also stained for alpha-smooth muscle actin (SMA).

[7] = 0.1 mg kg intravenous, FMT 24 h later

Cypate-RSSc[CFGGRIDRIGAC] (cypate-RSSCFGGRIDRIGAC-NH2; disulfide 4-15 (inferred); not fully specified) [LS668]
cellular internalization in presence of excess C-ANF peptide ([1]; 293T-NPR-C cells): Internalization was blocked; also recorded: inhibition of internalization | cellular internalization ([1]; LS668, 30-min incubation at 37° C., 5% CO2, stably transfected 293T-NPR-C cells): selectively internalized; also recorded: cellular internalization | cellular internalization in control cells [2]: did not internalize; also recorded: absence of internalization | uptake by tissue surrounding the localized fluorescent region [3, 7]: negligible nonspecific uptake | uptake in contralateral noninjured control femoral artery [3, 7]: negligible background uptake | accumulation at focal lesion (reconstructed FMT data) ([3]; 0.1 mg kg intravenous, FMT 24 h later, injured artery, depth of 4 to 16 mm, over 15 mm of length): localized fluorescence signal indicating accumulation of LS668 | integrated fluorescence signal, difference between control and injured arteries, P (unpaired t test, two tailed) ([3]; week 2 after surgery): 0.0283 | integrated fluorescence signal, difference between control and injured arteries, P (unpaired t test, two tailed) ([3]; week 6 after surgery): 0.0282 | time at which clearance from blood was achieved [4]: 24 h | localization into injured femoral artery as compared to control femoral artery [5]: 3.7 fold | fluorescence signal of control artery section after ex vivo staining ([6]; week 8 control artery): uniform fluorescence signal akin to nonspecific background | fluorescence signal of injured artery section after ex vivo staining ([6]; LS668 10 M, week 8 injured artery, layers between adventitia and lumen): increased signal
